Measurements from ChEMBL document CHEMBL1932988, “Synthesis, antimicrobial, anticancer evaluation and QSAR studies of 6-methyl-4-[1-(2-substituted-phenylamino-acetyl)-1H-indol-3-yl]-2-oxo/thioxo-1,2,3,4-tetrahydropyrimidine-5-carboxylic acid ethyl esters” (Eur J Med Chem, 2012).
Converted amounts (≈) assume the structure as drawn.

Assays:
Bacillus subtilis [1] = test: Antibacterial activity against Bacillus subtilis MTCC 2063 after 24 hrs by tube dilution method hrs followed by subculturing; format: functional
HCT-116 = test: cells; conditions: Homo sapiens, HCT-116, 72 h
Aspergillus niger [2] = test: Ratio of MIC to MFC for Aspergillus niger MTCC 8189; format: functional
Escherichia coli [3] = test: Antibacterial activity against Escherichia coli MTCC 1652 after 24 hrs by tube dilution method hrs followed by subculturing; format: functional
Bacillus subtilis [4] = test: Ratio of MIC to MBC for Bacillus subtilis MTCC 2063; format: functional
Aspergillus niger [5] = test: Antifungal activity against Aspergillus niger MTCC 8189 after 7 days by tube dilution method hrs followed by subculturing; format: functional
[6] = Partition coefficient, log P of the compound; format: physicochemical; conditions: octanol/water
Bacillus subtilis [7] = test: Antibacterial activity against Bacillus subtilis MTCC 2063 after 24 hrs by tube dilution method; format: functional
Staphylococcus aureus [8] = test: Ratio of MIC to MBC for Staphylococcus aureus MTCC 2901; format: functional
Escherichia coli [9] = test: Antibacterial activity against Escherichia coli MTCC 1652 after 24 hrs by tube dilution method; format: functional
Staphylococcus aureus [10] = test: Antibacterial activity against Staphylococcus aureus MTCC 2901 after 24 hrs followed by subculturing; format: functional
Candida albicans [11] = test: Antifungal activity against Candida albicans MTCC 227 after 48 hrs by tube dilution method hrs followed by subculturing; format: functional
Candida albicans [12] = test: Ratio of MIC to MFC for Candida albicans MTCC 227; format: functional
MCF7 = test: cells; conditions: Homo sapiens, MCF7, 72 h
Description: Cytotoxicity against human MCF7 cells after 72 hrs by MTT assay

Aspergillus niger [13] = test: Antifungal activity against Aspergillus niger MTCC 8189 after 7 days by tube dilution method; format: functional
Escherichia coli [14] = test: Ratio of MIC to MBC for Escherichia coli MTCC 1652; format: functional
Staphylococcus aureus [15] = test: Antibacterial activity against Staphylococcus aureus MTCC 2901 after 24 hrs by tube dilution method; format: functional
Candida albicans [16] = test: Antifungal activity against Candida albicans MTCC 227 after 48 hrs by tube dilution method; format: functional

| Compound | MBC (Bacillus subtilis [1]) [uM/ml] | IC50 (HCT-116) [µg/mL] | Ratio (Aspergillus niger [2]) | MBC (Escherichia coli [3]) [uM/ml] | Ratio (Bacillus subtilis [4]) | MFC (Aspergillus niger [5]) [uM/ml] | logP [6] | -logMIC (Bacillus subtilis [7]) | Ratio (Staphylococcus aureus [8]) | -logMIC (Escherichia coli [9]) | MBC (Staphylococcus aureus [10]) [uM/ml] | MFC (Candida albicans [11]) [uM/ml] | Ratio (Candida albicans [12]) | IC50 (MCF7) [µg/mL] | -logMIC (Aspergillus niger [13]) | Ratio (Escherichia coli [14]) | -logMIC (Staphylococcus aureus [15]) | -logMIC (Candida albicans [16]) |
| --- | --- | --- | --- | --- | --- | --- | --- | --- | --- | --- | --- | --- | --- | --- | --- | --- | --- | --- |
| CCOC(=O)C1=C(C)NC(=S)NC1c1cn(C(=O)CNc2ccc([N+](=O)[O-])c(Cl)c2)c2ccccc12 (stereo unspecified) | >0.09 | 29 (≈ 54.9 µM) | 3 | >0.09 | 3 | >0.09 | 3.4 | 1.32 | 3 | 1.63 | >0.09 | >0.09 | 3 | 50 (≈ 94.7 µM) | 1.63 | 3 | 1.63 | 1.63 |
| CCOC(=O)C1=C(C)NC(=O)NC1c1cn(C(=O)CNc2ccccc2[N+](=O)[O-])c2ccccc12 (stereo unspecified) | >0.1 | 250 (≈ 524 µM) | 3 | >0.1 | 3 | >0.1 | 1.48 | 1.58 | 3 | 1.58 | >0.1 | >0.1 | 3 | 40 (≈ 83.8 µM) | 1.58 | 3 | 1.58 | 1.58 |
